Experimental data from patent publication US10000476B2, “Pyridone derivative, pharmaceutical containing the same and methods of use thereof” (KAKEN PHARMACEUTICAL CO., LTD., priority 2011, dated 2018).

biological target: TACE (Homo sapiens (Human), UniProt P78536); experiment: TACE inhibition test (in vitro); assay type: biochemical; details: fluorescent synthetic substrate, 37° C., 1.5 hours
Method: The nucleotide sequence of TACE has been reported by Moss et al. (Moss, M. L. et al., Nature 1997, 385, 733-736). Accordingly, the cDNA of TACE was obtained according to the prescribed method from THP-1 cells or the like, and then incorporated the cDNA into an expression vector. Next, this vector was transformed into mammalian cells or insect cells, and TACE expression was obtained.
The TACE inhibition test was carried out by measuring TACE activity in the presence and the absence of the test substance using the thus-obtained TACE as an enzyme, and a fluorescent synthetic substrate Nma(N-methylanthranilic acid)-Leu-Ala-Gln-Ala-Val-Arg-Ser-Ser-Lys(Dnp(dinitrophenyl))-D-Arg-NH2 (SEQ ID NO: 1) including the TACE-cleaved sequence of a membrane-bound TNF as a substrate. The TACE inhibition test method is shown below.
Namely, 90 μL of an enzyme solution prepared with an assay buffer A (50 mM tris-hydrochloric acid buffer (pH 7.5) including 200 mM sodium chloride, 5 mM calcium chloride, 10 μM zinc sulfate, and 2 mg/mL bovine serum albumin) and 90 μL of a fluorescent synthetic substrate prepared with an assay buffer B (50 mM tris-hydrochloric acid buffer (pH 7.5) including 200 mM sodium chloride, 5 mM calcium chloride, 10 μM zinc sulfate, and 0.05% PLURONIC F-68) were mixed together, and reacted at 37° C. for 1.5 hours. Enzyme activity was then determined by measuring with a fluorescence intensity meter (Labsystems, Fluoroskan Ascent) at an excitation wavelength of 355 nm and a measurement wavelength of 460 nm.
From the enzyme activity in the presence or the absence of the test substance, the inhibition rate was determined, and the 50% inhibitiory concentration (IC50) of the test substance was calculated.

Chain of TACE (P78536 215-824): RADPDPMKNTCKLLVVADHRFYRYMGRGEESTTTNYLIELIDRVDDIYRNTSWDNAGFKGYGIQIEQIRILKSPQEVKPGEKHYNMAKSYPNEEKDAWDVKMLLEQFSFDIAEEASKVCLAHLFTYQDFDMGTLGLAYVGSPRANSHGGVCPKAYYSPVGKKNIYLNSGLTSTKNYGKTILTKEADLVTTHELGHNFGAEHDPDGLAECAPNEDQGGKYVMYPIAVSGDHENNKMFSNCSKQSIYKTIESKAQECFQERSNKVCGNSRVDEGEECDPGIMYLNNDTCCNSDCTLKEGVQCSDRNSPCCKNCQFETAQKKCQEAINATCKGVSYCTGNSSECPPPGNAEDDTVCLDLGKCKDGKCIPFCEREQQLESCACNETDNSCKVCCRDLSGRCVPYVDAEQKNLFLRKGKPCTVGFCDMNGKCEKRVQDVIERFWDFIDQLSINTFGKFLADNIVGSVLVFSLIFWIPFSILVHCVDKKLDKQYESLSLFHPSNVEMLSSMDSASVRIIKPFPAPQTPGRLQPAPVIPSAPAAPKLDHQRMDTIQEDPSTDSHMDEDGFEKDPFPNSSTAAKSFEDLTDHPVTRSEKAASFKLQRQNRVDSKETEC

Row | SMILES | IC50 [nM]
1 | COc1cc(F)ccc1C1(Cn2cccc(C)c2=O)NC(=O)NC1=O (stereo not drawn) [Compound I-21, 5-(4-fluoro-2-methoxyphenyl)-5-[(3-methyl-2-oxopyridin-1(2H)-yl)methyl]imidazolidine-2,4-dione] | < 100
2 | Cc1cccn(CC2(c3ccc4occc4c3)NC(=O)NC2=O)c1=O (stereo not drawn) [Compound I-22, 5-(benzofuran-5-yl)-5-[(3-methyl-2-oxopyridin-1(2H)-yl)methyl]imidazolidine-2,4-dione] | < 100
3 | Cc1cccn(CC2(c3ccc4sccc4c3)NC(=O)NC2=O)c1=O (stereo not drawn) [Compound I-23, 5-(benzo[b]thiophen-5-yl)-5-[(3-methyl-2-oxopyridin-1(2H)-yl)methyl]imidazolidine-2,4-dione] | < 100
4 | COc1ccc(OC(F)(F)F)cc1C1(Cn2cccc(C)c2=O)NC(=O)NC1=O (stereo not drawn) [Compound I-24, 5-[2-methoxy-5-(trifluoromethoxy)phenyl]-5-[(3-methyl-2-oxopyridin-1(2H)-yl)methyl]imidazolidine-2,4-dione] | 100 to 1000
5 | Cc1cccn(CC2(c3ccc(S(C)(=O)=O)cc3)NC(=O)NC2=O)c1=O (stereo not drawn) [Compound I-25, 5-[(3-methyl-2-oxopyridin-1(2H)-yl)methyl]-5-[4-(methylsulfonyl)phenyl]imidazolidine-2,4-dione] | < 100
6 | Cc1cccn(CC2(c3ccc4c(c3)CCCO4)NC(=O)NC2=O)c1=O (stereo not drawn) [Compound I-26, 5-(chroman-6-yl)-5-[(3-methyl-2-oxopyridin-1(2H)-yl)methyl]imidazolidine-2,4-dione] | < 100
7 | Cc1cccn(CC2(c3cccc(F)c3)NC(=O)NC2=O)c1=O (stereo not drawn) [Compound I-28, 5-(3-fluorophenyl)-5-[(3-methyl-2-oxopyridin-1(2H)-yl)methyl]imidazolidine-2,4-dione] | < 100
8 | Cc1cccn(CC2(c3cc(F)c(F)cc3F)NC(=O)NC2=O)c1=O (stereo not drawn) [Compound I-29, 5-[(3-methyl-2-oxopyridin-1(2H)-yl)methyl]-5-(2,4,5-trifluorophenyl)imidazolidine-2,4-dione] | < 100
9 | Cc1cc(C2(Cn3cccc(C)c3=O)NC(=O)NC2=O)ccc1F (stereo not drawn) [Compound I-30, 5-(4-fluoro-3-methylphenyl)-5-[(3-methyl-2-oxopyridin-1(2H)-yl)methyl]imidazolidine-2,4-dione] | < 100
10 | Cc1cccn(CC2(c3ccc(-c4ccncc4)cc3)NC(=O)NC2=O)c1=O (stereo not drawn) [Compound I-31, 5-[(3-methyl-2-oxopyridin-1(2H)-yl)methyl]-5-[4-(pyridin-4-yl)phenyl]imidazolidine-2,4-dione] | < 100
11 | Cc1cccn(CC2(c3ccc(-c4cccnc4)cc3)NC(=O)NC2=O)c1=O (stereo not drawn) [Compound I-32, 5-[(3-methyl-2-oxopyridin-1(2H)-yl)methyl]-5-[4-(pyridin-3-yl)phenyl]imidazolidine-2,4-dione] | < 100
12 | Cc1cccn(CC2(c3ccc(C#CC(C)(C)C)cc3)NC(=O)NC2=O)c1=O (stereo not drawn) [Compound I-33, 5-[4-(3,3-dimethylbut-1-yn-1-yl)phenyl]-5-[(3-methyl-2-oxopyridin-1(2H)-yl)methyl]imidazolidine-2,4-dione] | < 100
13 | Cc1ccc(Oc2ccc(C3(Cn4cccc(C)c4=O)NC(=O)NC3=O)cc2)cc1 (stereo not drawn) [Compound I-34, 5-[(3-methyl-2-oxopyridin-1(2H)-yl)methyl]-5-[4-(p-tolyloxy)phenyl]imidazolidine-2,4-dione] | < 100
14 | Cc1ccccc1Oc1ccc(C2(Cn3cccc(C)c3=O)NC(=O)NC2=O)cc1 (stereo not drawn) [Compound I-35, 5-[(3-methyl-2-oxopyridin-1(2H)-yl)methyl]-5-[4-(o-tolyloxy)phenyl]imidazolidine-2,4-dione] | < 100
15 | Cc1cc(C2(Cn3cccc(C)c3=O)NC(=O)NC2=O)ccc1OC1CCCC1 (stereo not drawn) [Compound I-39, 5-[4-(cyclopentyloxy)-3-methylphenyl]-5-[(3-methyl-2-oxopyridin-1(2H)-yl)methyl]imidazolidine-2,4-dione] | < 100
16 | Cc1cccn(CC2(c3ccc(-c4nn[nH]n4)cc3)NC(=O)NC2=O)c1=O (stereo not drawn) [Compound I-42, 5-[4-(2H-tetrazol-5-yl)phenyl]-5-[(3-methyl-2-oxopyridin-1(2H)-yl)methyl]imidazolidine-2,4-dione] | < 100
17 | C=Cc1ccc(C2(Cn3cccc(C)c3=O)NC(=O)NC2=O)cc1 (stereo not drawn) [Compound I-43, 5-[(3-methyl-2-oxopyridin-1(2H)-yl)methyl]-5-(4-vinylphenyl)imidazolidine-2,4-dione] | < 100
18 | Cc1cccn(CC2(c3cc(F)c(F)c(F)c3)NC(=O)NC2=O)c1=O (stereo not drawn) [Compound I-44, 5-[(3-methyl-2-oxopyridin-1(2H)-yl)methyl]-5-(3,4,5-trifluorophenyl)imidazolidine-2,4-dione] | < 100
19 | CCCc1ccc(C2(Cn3cccc(C)c3=O)NC(=O)NC2=O)cc1 (stereo not drawn) [Compound I-45, 5-[(3-methyl-2-oxopyridin-1(2H)-yl)methyl]-5-(4-propylphenyl)imidazolidine-2,4-dione] | < 100
20 | O=C1NC(=O)C(Cn2ccccc2=O)(c2ccccc2)N1 (stereo not drawn) [Compound I-46, 5-[(2-oxopyridin-1(2H)-yl)methyl]-5-phenylimidazolidine-2,4-dione] | < 100
21 | COc1ccc(C2(Cn3ccccc3=O)NC(=O)NC2=O)cc1 (stereo not drawn) [Compound I-47, 5-(4-methoxyphenyl)-5-[(2-oxopyridin-1(2H)-yl)methyl]imidazolidine-2,4-dione] | < 100
22 | O=C1NC(=O)C(Cn2cccc(F)c2=O)(c2ccc(F)cc2)N1 (stereo not drawn) [Compound I-48, 5-[(3-fluoro-2-oxopyridin-1(2H)-yl)methyl]-5-(4-fluorophenyl)-imidazolidine-2,4-dione] | < 100
23 | O=C1NC(=O)C(Cn2cccc(F)c2=O)(c2ccc(-c3ccccc3)cc2)N1 (stereo not drawn) [Compound I-49, 5-([1,1′-biphenyl]-4-yl)-5-[(3-fluoro-2-oxopyridin-1(2H)-yl)methyl]imidazolidine-2,4-dione] | < 100

Row | SMILES | IC50 [nM]
24 | O=C1NC(=O)C(Cn2cccc(Cl)c2=O)(c2ccccc2)N1 (stereo not drawn) [Compound I-50, 5-[(3-chloro-2-oxopyridin-1(2H)-yl)methyl]-5-phenylimidazolidine-2,4-dione] | < 100
25 | O=C1NC(=O)C(Cn2cccc(Cl)c2=O)(c2cc3ccccc3o2)N1 (stereo not drawn) [Compound I-51, 5-(benzofuran-2-yl)-5-[(3-chloro-2-oxopyridin-1(2H)-yl)methyl]imidazolidine-2,4-dione] | < 100
26 | COc1ccc(C2(Cn3cccc(Br)c3=O)NC(=O)NC2=O)cc1 (stereo not drawn) [Compound I-52, 5-[(3-bromo-2-oxopyridin-1(2H)-yl)methyl]-5-(4-methoxyphenyl)imidazolidine-2,4-dione] | < 100
27 | CCc1cccn(CC2(c3ccc(OC)cc3)NC(=O)NC2=O)c1=O (stereo not drawn) [Compound I-53, 5-[(3-ethyl-2-oxopyridin-1(2H)-yl)methyl]-5-(4-methoxyphenyl)imidazolidine-2,4-dione] | 100 to 1000
28 | Cc1cccn(CC2(c3cccc(O)c3)NC(=O)NC2=O)c1=O (stereo not drawn) [Compound I-54, 5-(3-hydroxyphenyl)-5-[(3-methyl-2-oxopyridin-1(2H)-yl)methyl]imidazolidine-2,4-dione] | 100 to 1000
29 | Cc1cccn(CC2(c3ccncc3)NC(=O)NC2=O)c1=O (stereo not drawn) [Compound I-55] | < 100
30 | Cc1cccn(CC2(c3ccc4ccccc4c3)NC(=O)NC2=O)c1=O (stereo not drawn) [Compound I-56] | < 100
31 | Cc1cccn(CC2(c3cccc(Br)c3)NC(=O)NC2=O)c1=O (stereo not drawn) [Compound I-57] | < 100
32 | Cc1cccn(CC2(c3cccc(OCc4ccccc4)c3)NC(=O)NC2=O)c1=O (stereo not drawn) [Compound I-58] | < 100
33 | Cc1cccn(CC2(c3ccc4c(c3)OCCO4)NC(=O)NC2=O)c1=O (stereo not drawn) [Compound I-59] | < 100
34 | COc1ccccc1C1(Cn2cccc(C)c2=O)NC(=O)NC1=O (stereo not drawn) [Compound I-60] | 100 to 1000
35 | Cc1cccn(CC2(c3ccc(F)cc3F)NC(=O)NC2=O)c1=O (stereo not drawn) [Compound I-61] | 100 to 1000
36 | Cc1cccn(CC2(c3cccc(C#CC(C)(C)C)c3)NC(=O)NC2=O)c1=O (stereo not drawn) [Compound I-63] | 100 to 1000
37 | Cc1cccn(CC2(c3ccc4c(c3)OCO4)NC(=O)NC2=O)c1=O (stereo not drawn) [Compound I-65] | < 100
38 | Cc1cccn(CC2(c3ccc(C4CCCCC4)cc3)NC(=O)NC2=O)c1=O (stereo not drawn) [Compound I-66] | < 100
39 | Cc1cccn(CC2(c3cccc(OC(F)(F)F)c3)NC(=O)NC2=O)c1=O (stereo not drawn) [Compound I-67] | < 100
40 | Cc1cccn(CC2(c3ccccc3OCc3ccccc3)NC(=O)NC2=O)c1=O (stereo not drawn) [Compound I-68] | 100 to 1000
41 | COc1ccc(F)cc1C1(Cn2cccc(C)c2=O)NC(=O)NC1=O (stereo not drawn) [Compound I-69] | < 100
42 | COc1cc(C)c(Cl)cc1C1(Cn2cccc(C)c2=O)NC(=O)NC1=O (stereo not drawn) [Compound I-70] | 100 to 1000
43 | Cc1cccn(CC2(c3cccc(C#CCN(C)C)c3)NC(=O)NC2=O)c1=O (stereo not drawn) [Compound I-71] | < 100
44 | COc1ccc(-c2ccc(C3(Cn4cccc(C)c4=O)NC(=O)NC3=O)cc2)cc1 (stereo not drawn) [Compound I-72] | < 100
45 | COc1cccc(-c2ccc(C3(Cn4cccc(C)c4=O)NC(=O)NC3=O)cc2)c1 (stereo not drawn) [Compound I-73] | < 100
